Results taken from PMC7110988 (Chemistry & Biology, 2005).
“Also recorded” adds a separate entry of the source.

What was measured:
[1] = test system: SARS coronavirus (SCV); settings: cited from earlier work
[2] = target: SCV helicase helicase activity (Severe acute respiratory syndrome coronavirus, UniProt P0C6X7); type: biochemical, SARS coronavirus
[3] = target: SCV helicase (nsp13) ATPase activity (Severe acute respiratory syndrome coronavirus, UniProt P0C6X7); test: biochemical; design: species or system SARS coronavirus
[4] = target: E. coli DnaB helicase (Escherichia coli, UniProt P0ACB0); type: biochemical
Sequence of E. coli DnaB helicase (P0ACB0 whole entry): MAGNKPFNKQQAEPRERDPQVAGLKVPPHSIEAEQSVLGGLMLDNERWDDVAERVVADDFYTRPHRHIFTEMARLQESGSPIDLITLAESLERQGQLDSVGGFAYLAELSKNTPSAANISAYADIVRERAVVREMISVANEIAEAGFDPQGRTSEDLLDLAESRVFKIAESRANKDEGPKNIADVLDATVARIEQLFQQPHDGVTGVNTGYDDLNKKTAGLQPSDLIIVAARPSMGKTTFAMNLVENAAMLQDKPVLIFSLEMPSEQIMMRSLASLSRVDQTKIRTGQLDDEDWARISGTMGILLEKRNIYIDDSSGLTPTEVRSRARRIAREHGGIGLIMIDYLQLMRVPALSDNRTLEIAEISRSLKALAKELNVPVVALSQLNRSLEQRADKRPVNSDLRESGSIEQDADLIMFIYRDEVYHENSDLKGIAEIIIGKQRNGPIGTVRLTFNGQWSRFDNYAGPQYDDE

[5] = test system: SCV (strain GZ50) in FRhK-4 cells; type: cell-based, SARS coronavirus; settings: 50 μM
[6] = target: SCV helicase (nsp13) unstimulated ATPase activity (Severe acute respiratory syndrome coronavirus, UniProt P0C6X7); type: biochemical, SARS coronavirus
[7] = test system: FRhK-4 cells
[8] = test system: SCV (strain GZ50) in FRhK-4 cells; test: microbe, parasite or virus in culture; type: cell-based, SARS coronavirus

Question: Which “Activity in cell culture” value [1] does the source give for NC(=O)c1ncn([C@@H]2O[C@H](CO)[C@@H](O)[C@H]2O)n1 [ribavirin] here?
Answer: Its value is “lack of activity”.

Question: Which results are given for COc1cc(CC(C)c2nc(C)c(O)c(C34OC5(O)CC(O)(CC(O)(C5)O3)O4)c2CO)ccc1O (racemic) [eubananin, 1-[6-[(2RS)-1-(4-hydroxy-3-methoxyphenyl)-2-propyl]-3-hydroxy-5-(hydroxymethyl)-2-methyl-4-pyridinyl]-2,8,9-trioxaadamantane-3,5,7-triol]?
Answer: Inhibition of helicase activity (in words) [2]: effective inhibitors; also recorded: the best inhibitors of DNA-unwinding; IC50 [3]: 2800 nM

Question: Which “Inhibition of DnaB helicase” value [4] does the source give for Cc1ncc(CO)c(C23OC4(O)CC(O)(CC(O)(C4)O2)O3)c1O [bananin, 1-[3-hydroxy-5-(hydroxymethyl)-2-methyl-4-pyridinyl]-2,8,9-trioxaadamantane-3,5,7-triol] here?
Answer: The value was “did not inhibit”.

Question: What about the “Inhibition of helicase activity (in words)” value [2] of the same molecule?
Answer: Its value is “effective inhibitors; also recorded: the best inhibitors of DNA-unwinding”.

Question: What about the “Cytopathic effects relative to control infection” value [5] of the same molecule?
Answer: The value was “distinctly reduced”.

Question: And the “Inhibition of unstimulated basal ATPase activity” value [6]?
Answer: Its value is “not an effective inhibitor; also recorded: Far weaker inhibition”.

Question: What about the “Inhibition of unstimulated basal ATPase activity at 100 µM” value ([6]; 100 µM) of the same molecule?
Answer: Its value is “slight inhibition”.

Question: What about the IC50 [3] of the same molecule?
Answer: Its IC50 is 2300 nM.

Question: And the “Mechanism of inhibition of ATPase activity” value [3]?
Answer: Its value is “noncompetitive inhibitor”.

Question: And the “Specificity index (CC50/EC50)” value [7]?
Answer: Its value is “over 39”.

Question: And the “Reduction of viral titre” value [8]?
Answer: The value was roughly 50%.

Question: What about the Viral titre [8] of the same molecule?
Answer: The Viral titre was “almost zero”.

Question: And the “Viral titre, % of untreated control infection” value [8]?
Answer: The value was “below 10%”.

Question: What about the EC50 ([8]; Severe acute respiratory syndrome coronavirus, FRhK-4, read-out: EC50 (antiviral, viral titre)) of the same molecule?
Answer: The EC50 was less than 10000 nM.

Question: Which “Inhibition of helicase activity (in words)” value [2] does the source give for COc1cc(C23OC4(O)CC(O)(CC(O)(C4)O2)O3)ccc1O [vanillinbananin, 1-(4-hydroxy-3-methoxyphenyl)-2,8,9-trioxaadamantane-3,5,7-triol] here?
Answer: The value was “effective inhibitors; also recorded: the best inhibitors of DNA-unwinding”.

Question: What about the IC50 [3] of the same molecule?
Answer: Its IC50 is 680 nM.
